Source: patent publication US20050228041A1, “Protective and therapeutic uses for tocotrienols” (priority 2003, published 2005)

Biological target: T1, Purified 12-lipoxygenase (porcine leukocyte) (Sus scrofa, UniProt P16469)
T1 construct: purchased Biomol Research labs Inc, Plymouth Meeting, Pa
T1 sequence (P16469 1-663): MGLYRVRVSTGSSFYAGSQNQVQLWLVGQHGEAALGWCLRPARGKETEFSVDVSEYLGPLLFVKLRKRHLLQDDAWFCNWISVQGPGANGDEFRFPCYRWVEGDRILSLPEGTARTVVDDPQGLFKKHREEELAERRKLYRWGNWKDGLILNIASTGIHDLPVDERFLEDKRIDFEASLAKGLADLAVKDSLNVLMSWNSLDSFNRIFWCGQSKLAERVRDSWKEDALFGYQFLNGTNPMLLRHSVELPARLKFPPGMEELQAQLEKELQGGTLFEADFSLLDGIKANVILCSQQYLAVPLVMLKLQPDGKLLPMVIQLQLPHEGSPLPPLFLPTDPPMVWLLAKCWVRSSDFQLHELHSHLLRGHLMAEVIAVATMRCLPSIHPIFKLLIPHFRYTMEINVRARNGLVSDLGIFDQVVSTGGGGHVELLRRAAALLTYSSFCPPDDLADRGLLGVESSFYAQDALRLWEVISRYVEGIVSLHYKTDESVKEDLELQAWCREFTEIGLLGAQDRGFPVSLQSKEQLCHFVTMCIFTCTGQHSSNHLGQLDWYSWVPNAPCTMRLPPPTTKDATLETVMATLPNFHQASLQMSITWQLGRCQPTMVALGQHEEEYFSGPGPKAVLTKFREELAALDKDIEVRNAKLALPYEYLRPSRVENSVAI
Test: Pure 12-lipoxygenase activity with [14C]-arachidonic acid (thin layer chromatography)
Format: biochemical
Conditions: 10 units enzyme, [14C]-arachidonic acid 25 μM, 30 min, 37° C.
Description: Referring to FIG. 6, HT4 cells were subjected to glutamate treatment for 2 h. […] Purified 12-lipoxygenase (porcine leukocyte; 10 units) was incubated with [^14C]-arachidonic acid (25 μM) for 30 min at 37° C. Arachidonic acid and 12-HETE were resolved using thin layer chromatography as described in Materials & Methods We observed that in HT4 cells, treatment with glutamate mobilized cytosolic 12-LOX protein to the cell membrane (FIGS. 6A&B).
12-Lipoxygenase activity. To investigate whether tocotrienol directly affect the activity of 12-LOX (12-LOX), 10 units of 12-LOX (Biomol Research labs Inc, Plymouth Meeting, Pa.) was incubated at room temperature for 15 min with or without tocotrienol as indicated in the respective figure legend. The reaction mixture contained 50 mM Tris HCl, pH 7.4 and 1 mM EDTA. After 15 min, the reaction was initiated by adding 25 μM [1-^14C]-arachidonic acid per sample. Samples were kept at 37° C. for 30 minutes. The reaction was terminated by adding 200 μl of ice-cold stop solution containing diethyl ether, methanol and 1 M citric acid at a ratio of 30:4:1 by volume. After mixing, samples were centrifuged and the ethereal extracts were spotted on a silica gel thin layer plate. […] Distribution of radioactivity of the substrate and products on the plate were quantified using a imaging analyzer.

CC(C)=CCC/C(C)=C/CC/C(C)=C/CC[C@]1(C)CCc2c(C)c(O)c(C)c(C)c2O1 [α-tocotrienol]
inhibition of pure 12-lipoxygenase activity: dose-dependently inhibited
